Assay results: ChEMBL document CHEMBL5465560, “Selectivity Literature for EUbOPEN Chemogenomic Library” (2024)

Experiments:
[1] = target: T1, Membrane-associated tyrosine- and threonine-specific cdc2-inhibitory kinase (Homo sapiens) (UniProt Q99640); conditions: at 10 µM
T1 sequence (whole entry): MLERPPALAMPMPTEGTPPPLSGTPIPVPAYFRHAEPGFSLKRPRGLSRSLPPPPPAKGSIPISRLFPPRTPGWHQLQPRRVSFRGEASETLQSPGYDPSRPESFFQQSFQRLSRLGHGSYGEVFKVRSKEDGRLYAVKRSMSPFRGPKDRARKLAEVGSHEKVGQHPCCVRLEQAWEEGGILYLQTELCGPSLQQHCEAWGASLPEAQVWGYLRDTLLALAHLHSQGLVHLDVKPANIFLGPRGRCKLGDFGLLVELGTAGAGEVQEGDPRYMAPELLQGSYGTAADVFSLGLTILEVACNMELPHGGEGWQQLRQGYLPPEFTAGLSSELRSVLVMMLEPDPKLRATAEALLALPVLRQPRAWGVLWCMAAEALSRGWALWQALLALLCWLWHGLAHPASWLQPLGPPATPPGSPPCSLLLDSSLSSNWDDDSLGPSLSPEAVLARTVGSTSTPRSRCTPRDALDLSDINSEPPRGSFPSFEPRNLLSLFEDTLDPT

[2] = target: Serine/threonine-protein kinase NIM1 (Homo sapiens, UniProt Q8IY84); conditions: at 10 µM
[3] = target: Tyrosine-protein kinase Lck (Homo sapiens, UniProt P06239); test: Selectivity interaction (Radiometric kinase assay (using 10 uM ATP)) EUB0000601a LCK
[4] = target: Serine/threonine-protein kinase 16 (Homo sapiens, UniProt O75716); test: Selectivity interaction (Ambit KINOMEscan and KiNATiv profiling in Jurkat cells) EUB0000090b STK16; assay type: cell-based; conditions: at 1 µM
[5] = target: Angiopoietin-1 receptor (Homo sapiens) (UniProt Q02763); test: Selectivity interaction (Ambit KINOMEscan and KiNATiv profiling in Jurkat cells) EUB0000090b TEK; assay type: cell-based; conditions: at 1 µM
[6] = target: Phosphatidylinositol 4,5-bisphosphate 3-kinase catalytic subunit alpha isoform (Homo sapiens) (UniProt P42336); conditions: at 10 µM
[7] = target: Serine/threonine-protein kinase PAK 6 (Homo sapiens) (UniProt Q9NQU5); test: Selectivity interaction (KinomeScan (DiscoverX)) EUB0000695a PAK6; conditions: at 100 nM
[8] = target: T2, Myosin light chain kinase (Homo sapiens) (UniProt Q32MK0); test: Selectivity interaction (KinomeScan (DiscoverX)) EUB0000229b MYLK3; conditions: at 10 µM
T2 sequence (whole entry): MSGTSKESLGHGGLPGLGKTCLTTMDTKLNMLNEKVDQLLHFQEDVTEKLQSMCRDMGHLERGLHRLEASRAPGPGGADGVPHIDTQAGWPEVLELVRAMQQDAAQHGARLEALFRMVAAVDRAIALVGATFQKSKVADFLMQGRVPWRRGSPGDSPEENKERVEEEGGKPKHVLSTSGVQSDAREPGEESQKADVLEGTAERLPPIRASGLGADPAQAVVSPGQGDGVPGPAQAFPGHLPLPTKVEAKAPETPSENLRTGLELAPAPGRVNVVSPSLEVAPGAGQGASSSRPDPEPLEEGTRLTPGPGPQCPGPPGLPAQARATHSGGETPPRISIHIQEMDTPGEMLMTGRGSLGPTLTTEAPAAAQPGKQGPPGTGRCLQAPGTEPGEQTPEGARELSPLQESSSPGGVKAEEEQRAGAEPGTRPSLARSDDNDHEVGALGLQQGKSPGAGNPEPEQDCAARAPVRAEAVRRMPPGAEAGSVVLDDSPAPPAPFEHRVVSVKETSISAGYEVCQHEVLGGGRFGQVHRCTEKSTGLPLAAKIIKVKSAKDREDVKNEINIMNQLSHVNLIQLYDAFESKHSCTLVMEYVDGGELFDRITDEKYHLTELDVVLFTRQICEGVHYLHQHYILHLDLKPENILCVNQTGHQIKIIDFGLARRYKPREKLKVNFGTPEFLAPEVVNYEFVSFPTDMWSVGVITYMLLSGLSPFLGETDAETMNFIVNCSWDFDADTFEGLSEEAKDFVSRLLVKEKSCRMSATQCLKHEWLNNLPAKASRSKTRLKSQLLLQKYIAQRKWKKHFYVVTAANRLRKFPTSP

[9] = target: Casein kinase II subunit alpha' (Homo sapiens) (UniProt P19784); test: Selectivity interaction (KinomeScan (DiscoverX)) EUB0000092b CSNK2A2; conditions: at 10 µM
[10] = target: Ephrin type-A receptor 5 (Homo sapiens) (UniProt P54756); test: Selectivity interaction (Upstate Kinase Profiler service (Millipore)) EUB0000056c EPHA5; conditions: at 1 µM
[11] = target: Mitogen-activated protein kinase kinase kinase 20 (Homo sapiens) (UniProt Q9NYL2); test: Selectivity interaction (KinomeScan (DiscoverX)) EUB0000045b MAP3K20
[12] = target: Ribosomal protein S6 kinase alpha-3 (Homo sapiens, UniProt P51812); test: Selectivity interaction (KinomeScan (DiscoverX)) EUB0000045b RPS6KA3
[13] = target: Mitogen-activated protein kinase 3 (Homo sapiens, UniProt P27361); test: Selectivity interaction (KinomeScan (DiscoverX)) EUB0000045b MAPK3
[14] = target: Serine/threonine-protein kinase PRP4 homolog (Homo sapiens) (UniProt Q13523); test: Selectivity interaction (KinomeScan (DiscoverX)) EUB0000045b PRPF4B
[15] = target: Cyclin-dependent kinase 16 (Homo sapiens) (UniProt Q00536); test: Selectivity interaction (KinomeScan (DiscoverX)) EUB0000618a CDK16; conditions: at 10 µM
[16] = target: Serine/threonine-protein kinase PAK 6 (Homo sapiens) (UniProt Q9NQU5); test: Selectivity interaction (KinomeScan (DiscoverX)) EUB0000607a PAK6; conditions: at 10 µM

Mitogen-activated protein kinase 3, sequence (P27361 whole entry): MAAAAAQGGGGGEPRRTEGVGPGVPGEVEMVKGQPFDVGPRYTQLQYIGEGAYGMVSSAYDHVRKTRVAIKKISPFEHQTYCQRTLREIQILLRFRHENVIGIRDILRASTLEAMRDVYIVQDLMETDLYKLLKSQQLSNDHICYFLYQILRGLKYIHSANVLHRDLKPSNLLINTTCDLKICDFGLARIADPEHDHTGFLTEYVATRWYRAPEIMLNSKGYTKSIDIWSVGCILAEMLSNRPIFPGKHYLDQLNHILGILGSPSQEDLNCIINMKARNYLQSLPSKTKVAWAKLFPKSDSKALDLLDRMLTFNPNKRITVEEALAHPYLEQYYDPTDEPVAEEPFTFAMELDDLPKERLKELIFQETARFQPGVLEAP
Ribosomal protein S6 kinase alpha-3, sequence (P51812 whole entry): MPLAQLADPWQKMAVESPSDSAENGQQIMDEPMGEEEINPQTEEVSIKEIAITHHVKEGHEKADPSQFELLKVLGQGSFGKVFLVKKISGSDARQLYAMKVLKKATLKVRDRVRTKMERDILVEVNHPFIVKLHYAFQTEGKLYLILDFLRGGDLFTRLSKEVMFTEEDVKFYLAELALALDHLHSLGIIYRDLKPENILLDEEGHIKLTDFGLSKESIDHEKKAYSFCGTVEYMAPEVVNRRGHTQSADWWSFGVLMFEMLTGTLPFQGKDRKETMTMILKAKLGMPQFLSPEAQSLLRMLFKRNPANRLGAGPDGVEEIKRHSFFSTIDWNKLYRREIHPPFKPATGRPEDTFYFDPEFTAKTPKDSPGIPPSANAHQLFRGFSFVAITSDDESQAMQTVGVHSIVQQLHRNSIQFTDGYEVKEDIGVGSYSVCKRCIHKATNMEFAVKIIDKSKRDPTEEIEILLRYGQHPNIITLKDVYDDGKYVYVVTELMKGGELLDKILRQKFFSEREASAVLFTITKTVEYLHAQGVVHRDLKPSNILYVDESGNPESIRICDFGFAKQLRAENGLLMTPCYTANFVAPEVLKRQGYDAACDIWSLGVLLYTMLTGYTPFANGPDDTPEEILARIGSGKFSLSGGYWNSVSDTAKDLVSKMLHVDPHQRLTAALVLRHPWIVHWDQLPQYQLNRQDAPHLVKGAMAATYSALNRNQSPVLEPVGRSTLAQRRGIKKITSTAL
Serine/threonine-protein kinase PAK 6 (Homo sapiens), sequence (Q9NQU5 whole entry, looked up): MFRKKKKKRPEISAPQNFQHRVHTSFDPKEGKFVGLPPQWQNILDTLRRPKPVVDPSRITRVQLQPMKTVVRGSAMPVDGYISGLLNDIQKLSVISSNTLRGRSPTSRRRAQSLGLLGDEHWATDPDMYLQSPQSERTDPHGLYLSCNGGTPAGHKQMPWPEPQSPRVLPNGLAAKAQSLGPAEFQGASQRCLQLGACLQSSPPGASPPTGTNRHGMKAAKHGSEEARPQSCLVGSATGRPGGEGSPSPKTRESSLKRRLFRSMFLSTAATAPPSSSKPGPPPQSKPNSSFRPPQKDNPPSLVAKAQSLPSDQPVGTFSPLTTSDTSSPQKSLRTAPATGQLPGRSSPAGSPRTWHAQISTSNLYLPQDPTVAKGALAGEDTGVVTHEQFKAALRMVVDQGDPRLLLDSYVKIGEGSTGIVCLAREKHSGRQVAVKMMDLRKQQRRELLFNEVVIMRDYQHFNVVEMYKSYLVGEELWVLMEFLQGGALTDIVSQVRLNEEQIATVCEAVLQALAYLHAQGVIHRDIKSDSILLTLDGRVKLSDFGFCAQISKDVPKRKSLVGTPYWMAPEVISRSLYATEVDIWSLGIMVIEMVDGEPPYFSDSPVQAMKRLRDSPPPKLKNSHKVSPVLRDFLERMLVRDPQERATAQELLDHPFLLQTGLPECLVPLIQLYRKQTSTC
Serine/threonine-protein kinase PRP4 homolog (Homo sapiens), sequence (Q13523 whole entry): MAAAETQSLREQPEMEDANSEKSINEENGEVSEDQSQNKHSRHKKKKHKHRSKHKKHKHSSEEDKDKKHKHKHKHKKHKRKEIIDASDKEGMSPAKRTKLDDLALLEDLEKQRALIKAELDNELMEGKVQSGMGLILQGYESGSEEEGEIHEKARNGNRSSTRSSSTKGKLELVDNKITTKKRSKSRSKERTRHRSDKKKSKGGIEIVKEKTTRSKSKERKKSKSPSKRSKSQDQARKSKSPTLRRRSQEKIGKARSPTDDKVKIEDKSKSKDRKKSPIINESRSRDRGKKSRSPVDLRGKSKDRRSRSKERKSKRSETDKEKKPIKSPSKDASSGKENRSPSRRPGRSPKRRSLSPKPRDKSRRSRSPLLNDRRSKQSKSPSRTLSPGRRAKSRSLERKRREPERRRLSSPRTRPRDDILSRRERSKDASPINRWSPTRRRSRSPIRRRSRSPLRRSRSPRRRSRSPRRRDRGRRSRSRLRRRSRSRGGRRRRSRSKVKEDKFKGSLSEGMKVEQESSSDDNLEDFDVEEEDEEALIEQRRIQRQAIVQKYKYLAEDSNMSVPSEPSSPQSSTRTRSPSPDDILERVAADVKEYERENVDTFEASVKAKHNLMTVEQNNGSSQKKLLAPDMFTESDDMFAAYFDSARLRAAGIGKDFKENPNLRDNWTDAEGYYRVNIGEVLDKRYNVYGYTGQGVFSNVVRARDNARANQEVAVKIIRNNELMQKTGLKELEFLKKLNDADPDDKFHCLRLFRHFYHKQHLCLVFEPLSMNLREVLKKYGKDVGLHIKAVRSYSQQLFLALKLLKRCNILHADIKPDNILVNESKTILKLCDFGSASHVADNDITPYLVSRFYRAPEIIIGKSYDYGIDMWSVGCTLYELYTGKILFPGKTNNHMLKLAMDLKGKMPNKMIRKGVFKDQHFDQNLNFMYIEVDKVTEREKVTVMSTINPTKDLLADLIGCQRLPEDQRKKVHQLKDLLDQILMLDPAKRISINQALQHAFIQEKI
Mitogen-activated protein kinase kinase kinase 20 (Homo sapiens), sequence (Q9NYL2 2-800 limits assumed): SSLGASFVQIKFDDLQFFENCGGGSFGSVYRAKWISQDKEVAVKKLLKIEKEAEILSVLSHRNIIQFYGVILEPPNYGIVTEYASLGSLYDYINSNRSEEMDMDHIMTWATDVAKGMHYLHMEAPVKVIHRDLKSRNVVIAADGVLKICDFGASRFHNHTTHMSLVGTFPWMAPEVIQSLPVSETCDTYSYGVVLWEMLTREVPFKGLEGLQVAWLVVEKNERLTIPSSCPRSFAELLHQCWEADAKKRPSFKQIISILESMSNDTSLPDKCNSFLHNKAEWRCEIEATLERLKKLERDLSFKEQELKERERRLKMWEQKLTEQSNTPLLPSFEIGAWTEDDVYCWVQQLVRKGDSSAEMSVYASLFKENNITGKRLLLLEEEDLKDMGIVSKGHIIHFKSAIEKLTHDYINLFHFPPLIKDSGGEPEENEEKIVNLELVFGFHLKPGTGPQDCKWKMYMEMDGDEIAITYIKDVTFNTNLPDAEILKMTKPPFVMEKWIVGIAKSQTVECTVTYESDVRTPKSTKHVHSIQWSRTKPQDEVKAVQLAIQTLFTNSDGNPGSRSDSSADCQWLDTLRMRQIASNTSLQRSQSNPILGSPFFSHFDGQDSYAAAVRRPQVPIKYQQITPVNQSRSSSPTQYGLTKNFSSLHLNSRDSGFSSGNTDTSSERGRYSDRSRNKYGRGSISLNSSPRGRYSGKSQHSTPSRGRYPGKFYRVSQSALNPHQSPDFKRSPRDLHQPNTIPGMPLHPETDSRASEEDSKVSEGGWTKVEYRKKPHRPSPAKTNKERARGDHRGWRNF
Serine/threonine-protein kinase 16, sequence (O75716 whole entry): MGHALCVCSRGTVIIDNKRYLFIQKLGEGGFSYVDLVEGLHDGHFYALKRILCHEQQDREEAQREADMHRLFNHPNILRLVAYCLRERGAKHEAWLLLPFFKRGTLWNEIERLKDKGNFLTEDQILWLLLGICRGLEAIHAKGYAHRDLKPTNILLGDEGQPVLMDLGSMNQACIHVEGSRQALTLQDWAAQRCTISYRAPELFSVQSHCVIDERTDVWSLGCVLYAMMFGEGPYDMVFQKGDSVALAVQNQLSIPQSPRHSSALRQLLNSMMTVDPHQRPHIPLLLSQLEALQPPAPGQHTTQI
Angiopoietin-1 receptor (Homo sapiens), sequence (Q02763 whole entry, canonical isoform): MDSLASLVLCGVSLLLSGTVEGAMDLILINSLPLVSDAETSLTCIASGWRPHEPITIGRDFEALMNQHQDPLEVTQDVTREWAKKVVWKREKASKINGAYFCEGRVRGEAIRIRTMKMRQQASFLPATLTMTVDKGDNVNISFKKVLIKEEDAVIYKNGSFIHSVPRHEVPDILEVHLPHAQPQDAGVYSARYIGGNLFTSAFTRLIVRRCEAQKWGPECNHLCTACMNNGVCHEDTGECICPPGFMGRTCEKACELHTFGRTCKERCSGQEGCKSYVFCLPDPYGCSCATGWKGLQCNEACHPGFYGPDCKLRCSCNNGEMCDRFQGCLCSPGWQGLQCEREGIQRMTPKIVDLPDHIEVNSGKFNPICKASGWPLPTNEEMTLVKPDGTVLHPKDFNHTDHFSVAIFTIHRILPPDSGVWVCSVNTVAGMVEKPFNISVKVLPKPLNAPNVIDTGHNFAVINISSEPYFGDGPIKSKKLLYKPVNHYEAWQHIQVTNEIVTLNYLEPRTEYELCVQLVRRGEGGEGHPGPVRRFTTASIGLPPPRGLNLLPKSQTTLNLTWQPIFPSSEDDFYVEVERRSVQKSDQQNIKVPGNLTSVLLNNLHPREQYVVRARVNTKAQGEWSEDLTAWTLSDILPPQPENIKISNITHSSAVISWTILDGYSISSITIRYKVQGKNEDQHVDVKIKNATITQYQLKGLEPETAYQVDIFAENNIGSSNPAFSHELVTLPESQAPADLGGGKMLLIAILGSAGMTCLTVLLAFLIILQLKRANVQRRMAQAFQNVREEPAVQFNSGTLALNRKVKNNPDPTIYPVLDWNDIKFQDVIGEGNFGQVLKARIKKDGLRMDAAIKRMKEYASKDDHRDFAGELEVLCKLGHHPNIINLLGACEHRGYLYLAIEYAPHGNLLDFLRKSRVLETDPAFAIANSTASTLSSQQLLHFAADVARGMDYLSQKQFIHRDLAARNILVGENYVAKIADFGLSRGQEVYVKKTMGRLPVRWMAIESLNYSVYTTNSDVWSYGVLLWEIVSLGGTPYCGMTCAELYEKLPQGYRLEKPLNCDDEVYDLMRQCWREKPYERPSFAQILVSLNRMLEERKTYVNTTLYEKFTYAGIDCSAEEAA

Cc1cc([C@@H](C)Nc2ccccc2C(=O)O)c2nc(N3CCOCC3)cc(=O)n2c1 [AZD-6482]
% of control [1]: 100% | % of control [2]: 100%

CCc1cc(Nc2nccc(-c3c(-c4ccc(OC)c(C(=O)Nc5c(F)cccc5F)c4)nc4ccccn34)n2)c(OC)cc1N1CCC(N2CCN(S(C)(=O)=O)CC2)CC1
IC50 [3]: > 3 µM

CN(C)C/C=C/C(=O)Nc1ccc(C(=O)N2CCCC(Nc3ncc(Cl)c(-c4c[nH]c5ccccc45)n3)C2)cc1 (stereo not given)
% of control [4]: 6.2% | % of control [5]: 92%

CCC(=O)N1CC[C@H](Nc2ncnc3c2CN(c2cnc(OC)c(C(F)(F)F)c2)CC3)C1 [LENIOLISIB]
% of inhibition [6]: 96%

Cc1cc(F)c(C(=O)Nc2cccc(-c3nncn3C(C)C)n2)cc1-n1cnc(C2CC2)c1
% of control [7]: 90%

COc1cc(N(C)c2ccnc3ccc(C(F)(F)F)cc23)cc(OC)c1OC
% binding [8]: 100%

CCC(=O)N1CCN(c2ccc(-n3c(=O)ccc4cnc5ccc(-c6cnc7ccccc7c6)cc5c43)cc2C(F)(F)F)CC1
% of control [9]: 11%

Cc1ccc(-c2ccc3c(ccc4sc5c(c43)NC[C@@H](C)NC5=O)n2)cn1
% of inhibition [10]: 6%

C=CC(=O)Nc1cc(-n2c(=O)ccc3cnc4ccc(-c5ccc(NS(C)(=O)=O)cc5)cc4c32)ccc1C
% of control ([11]; at 1 µM): 64% | % of control ([11]; at 10 µM): 12% | % of control ([12]; at 1 µM): 81% | % of control ([12]; at 10 µM): 100% | % of control ([13]; at 1 µM): 100% | % of control ([13]; at 10 µM): 79% | % of control ([14]; at 1 µM): 95% | % of control ([14]; at 10 µM): 89%

O[C@H]1CC[C@H](Nc2ncc3nc(Nc4c(F)cc(F)cc4F)n([C@H]4CCOC4)c3n2)CC1
% of control [15]: 100%

CNC(=O)Nc1ccc(-c2nc(N3CC4CCC(C3)O4)c3cnn(C4CCC5(CC4)OCCO5)c3n2)cc1
% of control [16]: 100%
